#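 Five compound concentrations were applied to cells in 96-well plates for 48 hours; endpoints were derived by simple linear interpolation of the resulting dose-response curve. GI50 is the concentration that inhibits growth by half.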 Active and inactive are the calls of the source. No stated cut-off is given here; in the data, active = GI50 up to about 1.1 µM and inactive = higher.
# Experiments:
# Assay in all cases: NCI tumour cell line growth inhibition, 48 h
# NCI-H460 = tested on: NCI-H460
# OVCAR-4 = tested on: OVCAR-4
# SNB-19 = tested on: SNB-19
# SNB-75 = tested on: SNB-75
# SW-620 = tested on: SW-620
# OVCAR-8 = tested on: OVCAR-8
# HT-29 = tested on: HT-29
# HOP-62 = tested on: HOP-62
# COLO 205 = tested on: COLO 205
# K562 = tested on: K562
# HCT-116 = tested on: HCT-116
# KM12 = tested on: KM12
# UACC-62 = tested on: UACC-62
# A549 = tested on: A549
# ACHN = tested on: ACHN
# HCC 2998 = tested on: HCC 2998
# SK-OV-3 = tested on: SK-OV-3
Compound,GI50 (NCI-H460),GI50 (OVCAR-4),GI50 (SNB-19),GI50 (SNB-75),GI50 (SW-620),GI50 (OVCAR-8),GI50 (HT-29),GI50 (HOP-62),GI50 (COLO 205),GI50 (K562),GI50 (HCT-116),GI50 (KM12),GI50 (UACC-62),GI50 (A549),GI50 (ACHN),GI50 (HCC 2998),GI50 (SK-OV-3)
COc1ccc(C(=O)NCCC2=CCCCC2)cc1,> 100 µM (inactive),> 100 µM (inactive),> 100 µM (inactive),> 100 µM (inactive),> 100 µM (inactive),> 100 µM (inactive),> 100 µM (inactive),> 100 µM (inactive),> 100 µM (inactive),> 100 µM (inactive),> 100 µM (inactive),> 100 µM (inactive),> 100 µM (inactive),> 100 µM (inactive),> 100 µM (inactive),–,–
CCn1c(CSc2nc(-c3ccccc3)c(-c3ccccc3)[nH]2)n[nH]c1=S,> 100 µM (inactive),> 100 µM (inactive),> 100 µM (inactive),> 100 µM (inactive),–,> 100 µM (inactive),> 100 µM (inactive),> 100 µM (inactive),> 100 µM (inactive),–,> 100 µM (inactive),51.4 µM (inactive),–,> 100 µM (inactive),> 100 µM (inactive),0.0243 µM (active),> 100 µM (inactive)
CCn1cnc2c(=S)nc(N)[nH]c21,> 100 µM (inactive),–,> 100 µM (inactive),> 100 µM (inactive),> 100 µM (inactive),> 100 µM (inactive),> 100 µM (inactive),> 100 µM (inactive),> 100 µM (inactive),> 100 µM (inactive),> 100 µM (inactive),> 100 µM (inactive),> 100 µM (inactive),> 100 µM (inactive),> 100 µM (inactive),> 100 µM (inactive),> 100 µM (inactive)
CN(C)CCNC(=O)c1cccc2c1nc(-c1ccccn1)c1ccccc12,7.26 µM (inactive),17.3 µM (inactive),30.7 µM (inactive),21.3 µM (inactive),11.2 µM (inactive),16 µM (inactive),16.3 µM (inactive),15.1 µM (inactive),12.3 µM (inactive),16.9 µM (inactive),10.3 µM (inactive),28.3 µM (inactive),17.1 µM (inactive),11.8 µM (inactive),15.5 µM (inactive),15.7 µM (inactive),17.4 µM (inactive)
C#Cc1cccc(N2C(=O)CC(=P(c3ccccc3)(c3ccccc3)c3ccccc3)C2=O)c1,97.5 µM (inactive),69.2 µM (inactive),69 µM (inactive),91.8 µM (inactive),54.6 µM (inactive),> 100 µM (inactive),39.6 µM (inactive),67.1 µM (inactive),44.9 µM (inactive),35.4 µM (inactive),32.6 µM (inactive),–,29.3 µM (inactive),70 µM (inactive),> 100 µM (inactive),70.8 µM (inactive),> 100 µM (inactive)
O=C(c1nc2ccc(Cl)cc2[nH]c1=O)C(O)c1ccco1 (stereo unspecified),57.9 µM (inactive),> 100 µM (inactive),> 100 µM (inactive),> 100 µM (inactive),> 100 µM (inactive),–,83.6 µM (inactive),–,> 100 µM (inactive),22.1 µM (inactive),46.7 µM (inactive),–,40.4 µM (inactive),50 µM (inactive),38.6 µM (inactive),44 µM (inactive),> 100 µM (inactive)
CC12N=NN(c3ccc([N+](=O)[O-])cc3)C1(O)c1ccccc1C2=O (stereo unspecified),> 100 µM (inactive),–,> 100 µM (inactive),–,> 100 µM (inactive),> 100 µM (inactive),> 100 µM (inactive),> 100 µM (inactive),> 100 µM (inactive),–,> 100 µM (inactive),> 100 µM (inactive),> 100 µM (inactive),> 100 µM (inactive),48.5 µM (inactive),> 100 µM (inactive),> 100 µM (inactive)
COCOCCCCCO[Si](C)(C)C(C)(C)C,19.6 µM (inactive),–,16 µM (inactive),30.3 µM (inactive),17.3 µM (inactive),19.5 µM (inactive),14.4 µM (inactive),–,19 µM (inactive),26.4 µM (inactive),12.9 µM (inactive),23.2 µM (inactive),25.3 µM (inactive),19.5 µM (inactive),14.4 µM (inactive),17.7 µM (inactive),40.6 µM (inactive)
S=C1OC2C3C4CC5C3C(O1)C1C5C4C21 (stereo unspecified),58.5 µM (inactive),> 100 µM (inactive),> 100 µM (inactive),> 100 µM (inactive),> 100 µM (inactive),> 100 µM (inactive),> 100 µM (inactive),> 100 µM (inactive),> 100 µM (inactive),–,45.2 µM (inactive),> 100 µM (inactive),> 100 µM (inactive),> 100 µM (inactive),> 100 µM (inactive),> 100 µM (inactive),> 100 µM (inactive)
N#Cc1c(-c2ccco2)cc(-c2ccc(N)cc2)[nH]c1=O,> 100 µM (inactive),> 100 µM (inactive),> 100 µM (inactive),> 100 µM (inactive),> 100 µM (inactive),> 100 µM (inactive),> 100 µM (inactive),> 100 µM (inactive),–,> 100 µM (inactive),> 100 µM (inactive),> 100 µM (inactive),> 100 µM (inactive),> 100 µM (inactive),> 100 µM (inactive),> 100 µM (inactive),> 100 µM (inactive)
Cc1cc(NS(=O)(=O)c2ccc(Nc3c4ccccc4nc4c(C(=O)Nc5ccc(S(=O)(=O)N=C(N)N)cc5)ccc(Cl)c34)cc2)no1,98.9 µM (inactive),28.5 µM (inactive),31.7 µM (inactive),25.9 µM (inactive),–,19.3 µM (inactive),49.7 µM (inactive),22.1 µM (inactive),83 µM (inactive),22.1 µM (inactive),53.8 µM (inactive),87.9 µM (inactive),25.1 µM (inactive),> 100 µM (inactive),60.5 µM (inactive),38.5 µM (inactive),31.7 µM (inactive)
COc1ccc(OC)c(NC(=O)CCC/C(CC(=O)c2ccc(O)c(OC)c2)=N\NC(=O)C[N+](C)(C)C)c1,> 100 µM (inactive),> 100 µM (inactive),> 100 µM (inactive),84.7 µM (inactive),> 100 µM (inactive),> 100 µM (inactive),> 100 µM (inactive),> 100 µM (inactive),> 100 µM (inactive),> 100 µM (inactive),–,> 100 µM (inactive),> 100 µM (inactive),> 100 µM (inactive),> 100 µM (inactive),> 100 µM (inactive),> 100 µM (inactive)
[O-][S+]1CSCS1 (stereo unspecified),–,> 100 µM (inactive),> 100 µM (inactive),> 100 µM (inactive),> 100 µM (inactive),> 100 µM (inactive),> 100 µM (inactive),> 100 µM (inactive),> 100 µM (inactive),> 100 µM (inactive),> 100 µM (inactive),> 100 µM (inactive),> 100 µM (inactive),> 100 µM (inactive),> 100 µM (inactive),> 100 µM (inactive),> 100 µM (inactive)

# Reference: ChEMBL document CHEMBL1201862, “PubChem BioAssay data set” (2004)
